Measurements from patent US10166292B2, “Blocking IL-9 signaling in conjunction with chemotherapy to treat cancer” (Mayo Foundation for Medical Education and Research, priority 2014, dated 2019).

Tests used:
CD4^+ T cells = test: IFNγ ELISpot assay of enriched T cells; assay type: cell-based, mice; conditions: CD4^+ T cells plus tumor cell lines, no syngeneic antigen-presenting cells; positive control
Procedure: 1×10^5 4T1 splenocytes were co cultured with either 5×10^4 4T1 or TUBO cells. 5×10^4 4T1 lymphocytes were co cultured with either 2.5×10^4 4T1 or TUBO cells, following the manufacturers' instructions. CD4^+ and CD8^+ T cells were enriched from the spleens of naïve and 4T1-bearing WT and IL-9ko mice using a negative isolation kit (Invitrogen, Carlsbad Calif.). 1×10^5 T cells were co-cultured with 2.5×10^4 4T1 cells or with BM185, a non-specific control tumor line for 40 hours. Each experimental condition was executed in biological triplicates, which in turn comprised triplicate wells. Manufacturer's instructions were followed to reveal INFγ positive spots using the interferon gamma ELISpot kit from Mabtech (cat #3321-2HW-Plus). The plates were imaged and evaluated by ZellNet Consulting, Inc. (Fort Lee N.J.), and result expressed as average of triplicate spots per condition. Phorbol 12-myristate 13-acetate (PMA) was used as a positive control of cell activation.
These cells were co-cultured with 4T1 or BM185 cells, a BALB/c background murine leukemia cell line used here as a negative control (FIG. 4C). […]

4T1 cells = test: Experimental metastasis model, tail vein injection of 4T1 cells, foci in the lung; assay type: in vivo; conditions: IL-9ko mice, 1×10^5 4T1 cells tail vein; IL-9ko without IL-9: 3, WT: 87; p=0.043
Text: Since few IL-9ko mice that developed 4T1 tumors never had evidence of macro metastases in the lungs, an experimental metastasis model was used to verify whether IL-9 plays a role in 4T1 seeding in the lung. […] Addition of recombinant IL-9 led to enhanced 4T1 seeding in the lungs of IL-9ko mice (an average of 13 foci per lung) (p=0.043, FIGS. 7A and 7B).

| Molecule | IFNγ^+ spots (CD4^+ T cells) | average foci per lung (4T1 cells) [foci per lung] |
| --- | --- | --- |
| CCCCCCCCCCCCCC(=O)O[C@@H]1[C@@H](C)[C@@]2(O)[C@@H](C=C(CO)C[C@]3(O)C(=O)C(C)=C[C@@H]23)[C@@H]2C(C)(C)[C@]12OC(C)=O [PMA, Phorbol 12-myristate 13-acetate] | produced IFNγ^+ spots only if exposed to PMA | – |
| recombinant IL-9: Recombinant IL-9 cytokine added to IL-9ko mice in the 4T1 lung metastasis model (protein, UniProt P15247 19-144, looked up) Interleukin-9: QRCSTTWGIRDTNYLIENLKDDPPSKCSCSGNVTSCLCLSVPTDDCTTPCYREGLLQLTNATQKSRLLPVFHRVKRIVEVLKNITCPSFSCEKPCNQTMAGNTLSFLKSLLGTFQKTEMQRQKSRP | – | 13 |
